# Assay results reported in patent US10035790B2, “RORγ modulators” (BRISTOL-MYERS SQUIBB COMPANY, priority 2012, dated 2018).
# Molecular target: T1, ligand binding domain of human RORγ (A262-S507) (Homo sapiens, UniProt P51449)
# T1 construct: made in house; host or cells: E. coli
# T1 sequence (P51449 262-507): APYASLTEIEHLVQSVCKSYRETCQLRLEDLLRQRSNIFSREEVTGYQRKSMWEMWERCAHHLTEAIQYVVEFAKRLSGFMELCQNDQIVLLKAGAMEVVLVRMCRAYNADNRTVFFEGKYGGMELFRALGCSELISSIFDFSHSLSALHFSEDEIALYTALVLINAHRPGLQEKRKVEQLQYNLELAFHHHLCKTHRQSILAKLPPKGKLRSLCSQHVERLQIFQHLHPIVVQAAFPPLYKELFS
# Assay: General RORγ SPA binding assay (competition with [3H]25-hydroxycholesterol)
# Details: RORγ SPA binding assay, inhibition of [3H]25-hydroxycholesterol binding; read-out: IC50
# Summary of the method: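 Step one: compound meets 50 nM nickel-purified, His-tagged protein from E. coli for 15 min at room temperature (PBS, 0.5% fatty acid free BSA). Step two: radioligand is added for another 15 min. Step three: SPA beads are added for 30 min before scintillation reading and IC50 fitting.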
row,SMILES,IC50 [nM]
1,"Cc1ncc(C(C)(C)OCc2cccc(Cl)c2)c(C2CCN(C(=O)Cc3c(F)cccc3F)CC2)n1 [Compound E6, 1-(4-(5-(2-((3-chlorobenzyl)oxy)propan-2-yl)-2-methylpyrimidin-4-yl)piperidin-1-yl)-2-(2,6-difluorophenyl)ethanone]",45.7
2,"Cc1ncc(C(C)(C)OCc2cccc(Cl)n2)c(C2CCN(C(=O)Cc3c(F)cccc3F)CC2)n1 [Compound E7, 1-(4-(5-(2-((6-chloropyridin-2-yl)methoxy)propan-2-yl)-2-methylpyrimidin-4-yl)piperidin-1-yl)-2-(2,6-difluorophenyl)ethanone]",63
3,"Cc1cc(C)cc(COCc2cnc(C)nc2C2CCN(C(=O)Cc3c(F)cccc3F)CC2)c1 [Compound E10, 2-(2,6-Difluorophenyl)-1-(4-(5-((3,5-dimethylbenzyloxy)methyl)-2-methylpyrimidin-4-yl)piperidin-1-yl)ethanone]",79
4,"Cc1cc(C)cc(COC(C)c2cnc(C)nc2C2CCN(C(=O)Cc3c(F)cccc3F)CC2)c1 (centres unmarked) [Compound E11, 2-(2,6-Difluorophenyl)-1-(4-(5-(1-(3,5-dimethylbenzyloxy)ethyl)-2-methylpyrimidin-4-yl)piperidin-1-yl)ethanone]",19.2
5,"Cc1ncc(C(C)(F)COc2cccc(C(F)(F)F)n2)c(C2CCN(C(=O)Nc3c(F)cccc3F)CC2)n1 (centres unmarked) [Compound E12, N-(2,6-Difluorophenyl)-4-[5-(1-fluoro-1-methyl-2-{[6-(trifluoromethyl)pyridin-2-yl]oxy}ethyl)-2-methylpyrimidin-4-yl]piperidine-1-carboxamide]",11
6,"Cc1ncc(C(C)(F)COc2cccc(C(F)(F)F)n2)c(C2CCN(C(=O)Nc3c(F)cccc3C(F)(F)F)CC2)n1 (centres unmarked) [Compound E13, 4-[5-(1-Fluoro-1-methyl-2-{[6-(trifluoromethyl)pyridin-2-yl]oxy}ethyl)-2-methylpyrimidin-4-yl]-N-[2-fluoro-6-(trifluoromethyl)phenyl]piperidine-1-carboxamide]",13.2
7,"Cc1cc(C)cc(OCC(C)(F)c2cnc(C)nc2C2CCN(C(=O)Cc3c(F)cccc3F)CC2)c1 (centres unmarked) [Compound E14, 4-{1-[(2,6-Difluorophenyl)acetyl]piperidin-4-yl}-5-{2-[(3,5-dimethylphenyl)oxy]-1-fluoro-1-methylethyl}-2-methylpyrimidine]",28
8,"Cc1ncc(C(C)(F)CNc2ccnc(C(F)(F)F)n2)c(C2CCN(C(=O)Nc3c(F)cccc3F)CC2)n1 (centres unmarked) [Compound E15, N-(2,6-Difluorophenyl)-4-[5-(1-fluoro-1-methyl-2-{[2-(trifluoromethyl)pyrimidin-4-yl]amino}ethyl)-2-methylpyrimidin-4-yl]piperidine-1-carboxamide]",56.5
9,"Cc1ncc(C(C)(C)CNc2ccnc(C(F)(F)F)n2)c(C2CCN(C(=O)Cc3c(F)cccc3F)CC2)n1 [Compound F1, 2-(2,6-Difluorophenyl)-1-(4-(2-methyl-5-(2-methyl-1-(2-(trifluoromethyl)pyrimidin-4-ylamino)propan-2-yl)pyrimidin-4-yl)piperidin-1-yl)ethanone]",76
10,"Cc1ncc(C(C)(C)CNc2nccc(C(F)(F)F)n2)c(C2CCN(C(=O)Cc3c(F)cccc3F)CC2)n1 [Compound F2, 2-(2,6-difluorophenyl)-1-(4-(2-methyl-5-(2-methyl-1-((4-(trifluoromethyl)pyrimidin-2-yl)amino)propan-2-yl)pyrimidin-4-yl)piperidin-1-yl)ethanone]",26
11,"Cc1ncc(C(C)(C)CNc2cccc(C(F)(F)F)n2)c(C2CCN(C(=O)Cc3c(F)cccc3F)CC2)n1 [Compound F3, N-[2-(4-{1-[(2,6-difluorophenyl)acetyl]piperidin-4-yl}-2-methylpyrimidin-5-yl)-2-methylpropyl]-6-(trifluoromethyl)pyridin-2-amine]",3.3
12,"COC(=O)C(C)(CNc1ccnc(C(F)(F)F)n1)c1cnc(C)nc1C1CCN(C(=O)Cc2c(F)cccc2F)CC1 (centres unmarked) [Compound F4, Methyl 2-(4-(1-(2-(2,6-difluorophenyl)acetyl)piperidin-4-yl)-2-methylpyrimidin-5-yl)-2-methyl-3-(2-(trifluoromethyl)pyrimidin-4-ylamino)propanoate]",195
13,"Cc1ncc(C(C)(CO)CNc2ccnc(C(F)(F)F)n2)c(C2CCN(C(=O)Cc3c(F)cccc3F)CC2)n1 (centres unmarked) [Compound F5, 2-(2,6-Difluorophenyl)-1-(4-(5-(1-hydroxy-2-methyl-3-(2-(trifluoromethyl)pyrimidin-4-ylamino)propan-2-yl)-2-methylpyrimidin-4-yl)piperidin-1-yl)ethanone]",101
14,"Cc1cc(C)cc(CNCc2cnc(C)nc2C2CCN(C(=O)Cc3c(F)cccc3F)CC2)c1 [Compound F6, 2-(2,6-Difluorophenyl)-1-(4-(5-((3,5-dimethylbenzylamino)methyl)-2-methylpyrimidin-4-yl)piperidin-1-yl)ethanone]",44.2
15,"Cc1cc(C)cc(CNC(c2cnc(C)nc2C2CCN(C(=O)Cc3c(F)cccc3F)CC2)C(F)(F)F)c1 (centres unmarked) [Compound F7, 2-(2,6-Difluorophenyl)-1-(4-(5-(1-(3,5-dimethylbenzylamino)-2,2,2-trifluoroethyl)-2-methylpyrimidin-4-yl)piperidin-1-yl)ethanone]",9.8
16,"Cc1ncc(C(C)(C)CNc2ccnc(C(F)(F)F)n2)c(C2CCN(C(=O)Nc3c(F)cccc3F)CC2)n1 [Compound F8, N-(2,6-Difluorophenyl)-4-(2-methyl-5-(2-methyl-1-(2-(trifluoromethyl)pyrimidin-4-ylamino)propan-2-yl)pyrimidin-4-yl)piperidine-1-carboxamide]",1340
17,"Cc1cc(C)cc(CNC(C)c2cnc(C)nc2C2CCN(C(=O)Cc3c(F)cccc3F)CC2)c1 (centres unmarked) [Compound F9, 2-(2,6-Difluorophenyl)-1-(4-(5-(1-(3,5-dimethylbenzylamino)ethyl)-2-methylpyrimidin-4-yl)piperidin-1-yl)ethanone]",29.9
18,"Cc1ncc(C(=O)NNc2cccc(Cl)c2)c(C2CCN(C(=O)Cc3c(F)cccc3F)CC2)n1 [Compound G1, N-(3-Chlorophenyl)-4-(1-(2-(2,6-difluorophenyl)acetyl)piperidin-4-yl)-2-methylpyrimidine-5-carbohydrazide]",9.6
19,"O=C(NNc1cccc(Cl)c1)c1cnc(C2CC2)nc1C1CCN(C(=O)Cc2c(F)cccc2F)CC1 [Compound G2, N′-(3-chlorophenyl)-2-cyclopropyl-4-(1-(2-(2,6-difluorophenyl)acetyl)piperidin-4-yl)pyrimidine-5-carbohydrazide]",4.6
20,"CCc1ncc(C(=O)NNc2cccc(Cl)c2)c(C2CCN(C(=O)Cc3c(F)cccc3F)CC2)n1 [Compound G3, N′-(3-chlorophenyl)-4-(1-(2-(2,6-difluorophenyl)acetyl)piperidin-4-yl)-2-ethylpyrimidine-5-carbohydrazide]",8.1
21,"Cc1nc(C)c(C(=O)NNc2cccc(Cl)c2)c(C2CCN(C(=O)Cc3c(F)cccc3F)CC2)n1 [Compound G4, N′-(3-chlorophenyl)-4-(1-(2-(2,6-difluorophenyl)acetyl)piperidin-4-yl)-2,6-dimethylpyrimidine-5-carbohydrazide]",12.1
22,"Cc1ncc(C(=O)NOc2cccc(C(F)(F)F)c2)c(C2CCN(C(=O)Cc3c(F)cccc3F)CC2)n1 [Compound H1, 4-{1-[(2,6-Difluorophenyl)acetyl]piperidin-4-yl}-2-methyl-N-{[3-(trifluoromethyl)-phenyl]oxy}pyrimidine-5-carboxamide]",327
23,"Cc1cc(C)cc(ONC(=O)c2cnc(C)nc2C2CCN(C(=O)Cc3c(F)cccc3F)CC2)c1 [Compound H2, 4-(1-(2-(2,6-difluorophenyl)acetyl)piperidin-4-yl)-N-(3,5-dimethylphenoxy)-2-methylpyrimidine-5-carboxamide]",49
24,"Cc1ncc(C(=O)NOc2cccc(Cl)c2)c(C2CCN(C(=O)Cc3c(F)cccc3F)CC2)n1 [Compound H3, N-(3-chlorophenoxy)-4-(1-(2-(2,6-difluorophenyl)acetyl)piperidin-4-yl)-2-methylpyrimidine-5-carboxamide]",84
25,"Cc1ncc(C(=O)NOc2cccc(OC(F)(F)F)c2)c(C2CCN(C(=O)Cc3c(F)cccc3F)CC2)n1 [Compound H4, 4-(1-(2-(2,6-difluorophenyl)acetyl)piperidin-4-yl)-2-methyl-N-(3-(trifluoromethoxy)phenoxy)pyrimidine-5-carboxamide]",294
26,"Cc1nc(C)c(C(=O)NOc2cccc(Cl)c2)c(C2CCN(C(=O)Cc3c(F)cccc3F)CC2)n1 [Compound H5, N-(3-chlorophenoxy)-4-(1-(2-(2,6-difluorophenyl)acetyl)piperidin-4-yl)-2,6-dimethylpyrimidine-5-carboxamide]",503
27,"Cc1ncc(C(=O)NOc2cc(F)cc(Cl)c2)c(C2CCN(C(=O)Cc3c(F)cccc3F)CC2)n1 [Compound H6, N-(3-chloro-5-fluorophenoxy)-4-(1-(2-(2,6-difluorophenyl)acetyl)piperidin-4-yl)-2-methylpyrimidine-5-carboxamide]",1630
28,"Cc1ncc(C(=O)NOc2ccccc2)c(C2CCN(C(=O)Cc3c(F)cccc3F)CC2)n1 [Compound H7, 4-(1-(2-(2,6-difluorophenyl)acetyl)piperidin-4-yl)-2-methyl-N-phenoxypyrimidine-5-carboxamide]",1750
29,"Cc1nc(C2CCN(C(=O)Cc3c(F)cccc3F)CC2)c(C(=O)NCc2cccc(C(F)(F)F)n2)c(=O)[nH]1 [Compound I1, 4-{1-[(2,6-Difluorophenyl)acetyl]piperidin-4-yl}-2-methyl-6-oxo-N-{[6-(trifluoromethyl)pyridin-2-yl]methyl}-1,6-dihydropyrimidine-5-carboxamide]",40.3
